Data published in US20200390755A1, “COMPOUND FOR TREATING NERVOUS SYSTEM DISEASES AND USE THEREOF” (SHAANXI MICOT TECHNOLOGY CO., LTD., priority 2018, published 2020).

Key:
[1] = test system: WT mice; test: High-altitude balance beam (11 mm) experiment 1, WT mice; assay type: in vivo, mouse; conditions: 5 mg/kg/d intragastric
Method: 7-week-old N171-82Q HD male mice were paired with female B6C3F1/J hybrid mice to obtain newborn mice. From 21 days of age, male mice were housed in separate cages. 0.5 cm of mouse tail tissue was removed to extract DNA to determine the genotype of the mouse, such that N171-82Q HD mice and WT mice needed for the experiment were obtained. The mice were randomly divided into WT Vehicle group (normal mice), WT test compound group (administration group of normal mice, 5 mg/kg/d, n=10), HD Vehicle group (blank group of HD mice, n=15), HD test compound group (administration groups 1-5 of HD mice, 5 mg/kg/d, n=10). The test compound was suspended in 1% CMC-Na solution and administered by intragastric administration until the end of the study. The weights of the mice were measured every week. Behavioral tests were performed at 12 weeks, 18 weeks, and 24 weeks of age to investigate motor function. At 20 weeks, 3 samples of tissue from each group were used for western blotting and immunohistochemistry. At 24 weeks, MRI scans were performed. At the end of the study, the effect of the test compound on the mortality of mice was evaluated. The software Sigmaplot 13.0 was used for statistical analysis of the data, and the data of each group was expressed as mean standard error (x±SEM). Behavioral test results were analyzed using two-way (genotype and processing factor) ANOVA and post-ho tests, the comparison and statistics of weight data were performed using two-way (genotype and age) ANOVA of repeated measures, and mortality was counted using Kaplan-Meier method. Other measurement data were analyzed by one-way ANOVA. P<0.05 was considered statistically significant. The motor function of mice was evaluated by the rotarod experiment and three types of balance beam experiments. […] If the time for crossing the beams was greater than 60 seconds, it was recorded as 60 seconds. a round balance beam with a length of 80 cm and a diameter of 11 mm was place at a height of about 50 cm from the ground. […]

[2] = test system: WT mice; test: In vivo MRI scan and brain volume measurement, WT mice; design: species or system mouse; conditions: 5 mg/kg/d, administered until 24 weeks, n = 4
Method: 7-week-old N171-82Q HD male mice were paired with female B6C3F1/J hybrid mice to obtain newborn mice. From 21 days of age, male mice were housed in separate cages. 0.5 cm of mouse tail tissue was removed to extract DNA to determine the genotype of the mouse, such that N171-82Q HD mice and WT mice needed for the experiment were obtained. The mice were randomly divided into WT Vehicle group (normal mice), WT test compound group (administration group of normal mice, 5 mg/kg/d, n=10), HD Vehicle group (blank group of HD mice, n=15), HD test compound group (administration groups 1-5 of HD mice, 5 mg/kg/d, n=10). The test compound was suspended in 1% CMC-Na solution and administered by intragastric administration until the end of the study. The weights of the mice were measured every week. Behavioral tests were performed at 12 weeks, 18 weeks, and 24 weeks of age to investigate motor function. At 20 weeks, 3 samples of tissue from each group were used for western blotting and immunohistochemistry. At 24 weeks, MRI scans were performed. At the end of the study, the effect of the test compound on the mortality of mice was evaluated. The WT Vehicle group, WT test compound group, HD Vehicle group and HD test compound group were administered until 24 weeks, and 4 mice in each group were taken for in vivo MRI scanning and brain volume measurement. A 9.4 T MRI scanner equipped with three-axis gradient and animal imaging probes was used. The mice were anesthetized with 1% isoflurane. The breath of mice was monitored, and constant temperature was maintained throughout the scan. Three-dimensional T2 weighted fast spin echo sequence technology was used to obtain images. The imaging resolution and contrast of this technology were sufficient to automatically describe the volume of the mouse brain and substructures. […] These transformations encoded morphological differences between images and analyzed based on deformation morphological measurements (DBM) to detect regional changes in brain volume. The volume of the whole brain (Brain), […] was analyzed. […]

In the case of `O=c1cc(-c2ccc(N3CCCCC3)cc2)oc2c(O)c(O)ccc12` [Example 1, 7,8-dihydroxy-2-(4-(piperidin-1-yl)phenyl)-4H-chromen-4-one], the “Time for crossing the beams, high-altitude balance beam (11 mm)” value (“Time for crossing the beams” for short) ([1]; 12 w) is reported as 8.18 ± 1.99 s, the “Time for crossing the beams” value ([1]; 18 w) is reported as 7.55 ± 2.42 s and the “Time for crossing the beams” value ([1]; 24 w) is reported as 8.18 ± 4.29 s. For the same molecule, the “MRI volume, Neurocortex” value [2] was 20.11 ± 0.377 mm^3, the “MRI volume, Striatum” value [2] was 88.99 ± 0.985 mm^3 and the “MRI volume, Whole brain” value [2] was 489.08 ± 7.14 mm^3.
